Measured values from US5427766A, “Radiolabeled steroids for use in radiochemical-guided surgery” (priority 1993, dated 1995).

Assay: physchem
Assay type: physicochemical
Settings: solid state
Procedure: (Z)-Stannyl olefin 4 (25 mg, 41 μmol) was added to 1 mL of chloroform and iodine (10.9 mg, […]) was added with stirring. Rapid decoloration took place and an additional amount of iodine (1 mg) was added which imparted a pink color. Several drops of methanolic potassium fluoride was added which precipitated a tin complex. To the slurry was added 0.5 mL of saturated […] and the organic phase was separated, dried over sodium sulfate and evaporated to give an oil. This material was chromatographed using 2 percent methanol in chloroform on a 1 cm×10 cm flash gel column to give (Z)-iodo olefin 5 (15.3 mg) in 84 percent yield as a white solid.

With CC[C@H]1C[C@@]2(C)[C@@H](CC[C@@]2(O)/C=C\I)[C@@H]2CCc3cc(O)ccc3[C@@H]12 [(Z)-iodo olefin 5, 11β-Ethyl-17α-(Z)-(iodovinyl)estra-3,17β-diol] the protodestannylation in product (a week at 25° C., HPLC 254 nm) was 3.4 area percent, the “suspect (E)-iodo” value (a week at 25° C., HPLC 254 nm) was 10.9 area percent and the remaining at 168 h was 74%.
